Assays:
Format in all cases: tissue-based
[1] = biological target: T1, Potassium-transporting ATPase (Sus scrofa) (UniProt P18434+P19156); experiment: The compound was tested for its inhibitory activity against H+/K+ ATPase by using hog stomach membrane fractions at 8 uM
[2] = biological target: Potassium-transporting ATPase (Sus scrofa, UniProt P19156); experiment: The compound was tested for its inhibitory activity against H+/K+ ATPase by using hog stomach membrane fractions (pH 6.4)
[3] = biological target: T1, Potassium-transporting ATPase (Sus scrofa); experiment: The compound was tested for its inhibitory activity against H+/K+ ATPase by using hog stomach membrane fractions (pH 6.4) at 4 uM
[4] = biological target: T1, Potassium-transporting ATPase (Sus scrofa); experiment: The compound was tested for its inhibitory activity against H+/K+ ATPase by using hog stomach membrane fractions at 10 uM
[5] = biological target: T1, Potassium-transporting ATPase (Sus scrofa); experiment: The compound was tested for its inhibitory activity against H+/K+ ATPase by using hog stomach membrane fractions at 4 uM

Potassium-transporting ATPase, sequence (P18434 whole entry): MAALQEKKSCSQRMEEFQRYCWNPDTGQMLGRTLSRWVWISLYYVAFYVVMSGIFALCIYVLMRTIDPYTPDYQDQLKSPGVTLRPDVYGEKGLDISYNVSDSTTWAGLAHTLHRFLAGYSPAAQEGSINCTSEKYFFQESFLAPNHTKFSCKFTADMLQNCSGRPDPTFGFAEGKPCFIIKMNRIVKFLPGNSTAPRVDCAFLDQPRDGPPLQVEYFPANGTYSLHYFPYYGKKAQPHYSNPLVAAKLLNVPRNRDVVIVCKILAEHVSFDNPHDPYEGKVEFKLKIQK
Potassium-transporting ATPase, sequence (P19156 whole entry): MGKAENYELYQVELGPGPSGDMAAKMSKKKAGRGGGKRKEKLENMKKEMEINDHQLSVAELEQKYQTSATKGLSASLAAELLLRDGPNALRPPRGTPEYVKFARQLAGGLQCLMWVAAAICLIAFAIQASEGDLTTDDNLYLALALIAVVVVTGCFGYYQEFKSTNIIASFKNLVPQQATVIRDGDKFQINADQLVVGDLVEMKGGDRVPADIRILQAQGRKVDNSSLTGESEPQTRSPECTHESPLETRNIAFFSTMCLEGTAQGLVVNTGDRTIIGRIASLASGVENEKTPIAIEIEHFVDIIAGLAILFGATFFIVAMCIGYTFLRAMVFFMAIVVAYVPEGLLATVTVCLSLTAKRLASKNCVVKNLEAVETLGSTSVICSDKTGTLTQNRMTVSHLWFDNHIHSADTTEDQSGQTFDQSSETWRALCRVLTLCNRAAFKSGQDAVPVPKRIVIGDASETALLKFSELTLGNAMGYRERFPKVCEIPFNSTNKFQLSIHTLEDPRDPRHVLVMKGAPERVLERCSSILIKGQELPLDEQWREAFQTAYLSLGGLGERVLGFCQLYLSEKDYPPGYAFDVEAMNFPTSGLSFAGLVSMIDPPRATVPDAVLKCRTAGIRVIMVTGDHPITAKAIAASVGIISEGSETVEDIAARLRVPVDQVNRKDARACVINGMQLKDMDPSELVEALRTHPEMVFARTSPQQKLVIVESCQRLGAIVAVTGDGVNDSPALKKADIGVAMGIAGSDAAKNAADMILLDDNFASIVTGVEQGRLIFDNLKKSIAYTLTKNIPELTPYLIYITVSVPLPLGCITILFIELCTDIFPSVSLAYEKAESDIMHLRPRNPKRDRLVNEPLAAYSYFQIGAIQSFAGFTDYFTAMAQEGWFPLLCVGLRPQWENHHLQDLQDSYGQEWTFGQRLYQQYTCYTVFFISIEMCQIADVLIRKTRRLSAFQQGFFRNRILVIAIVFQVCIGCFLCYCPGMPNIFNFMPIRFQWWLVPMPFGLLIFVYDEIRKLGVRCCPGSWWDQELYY

| Structure (SMILES) | IC50 [2] [nM] | other results |
| --- | --- | --- |
| Cc1cnc(C(CO)Cc2cccc3ccccc23)cc1OCCOc1ccccc1 (stereo unspecified) | – | inhibition [1]: 27% |
| CC(C)=CCOc1cc(C(CO)Cc2cccc3ccccc23)ncc1C (stereo unspecified) | 3000 | – |
| CC#CCOc1cc(C(CO)Cc2cccc3ccccc23)ncc1C (stereo unspecified) | – | inhibition [3]: 22% |
| Cc1cnc(C(CO)Cc2cccc3ccccc23)cc1OC1CCCCC1 (stereo unspecified) | 500 | – |
| Cc1cnc(C(CO)Cc2cccc3ccccc23)cc1OCC(C)(C)C (stereo unspecified) | 600 | – |
| Cc1cnc(C(CO)Cc2cccc3ccccc23)cc1Oc1ccccc1 (stereo unspecified) | – | inhibition [4]: 36% |
| Cc1cnc(C(CO)Cc2cccc3ccccc23)cc1OCC1CCCCC1 (stereo unspecified) | 3100 | – |
| Cc1cnc(C(CO)Cc2cccc3ccccc23)cc1OCc1ccccn1 (stereo unspecified) | – | inhibition [5]: 21% |

Further lines, with some results ahead:

| IC50 [2] [nM] | Structure (SMILES) | other results |
| --- | --- | --- |
| 1800 | Cc1cnc(C(CO)Cc2cccc3ccccc23)cc1OCc1ccccc1O (stereo unspecified) | – |
| 1700 | COc1ccccc1COc1cc(/C(=C\c2cccc3ccccc23)CO)ncc1C | – |
| 900 | Cc1cnc(/C(=C\c2cccc3ccccc23)CO)cc1OCc1ccccc1O | – |
